Values joined by “and” are separate entries in the source; they are usually repeats but may differ in a detail not shown here. Identical values can stand only once. Counter-ions that a name gives are not always drawn. Some results are limits rather than exact numbers.

One data set deals with T1, Adrenergic β2 (Homo sapiens, UniProt P07550).
T1 construct: Adherent H292 cells were removed from tissue culture flasks; endogenous in cells; host or cells: H292 cells
As to the kind of experiment: Adrenergic β2 mediated cAMP production in H292 cells (AlphaScreen). The format is cell-based. Conditions: Intrinsic Activity as a fraction relative to the maximum activity of formoterol. The procedure:
Adrenergic β2 Mediated cAMP Production
H292 cells were grown in 225 cm2 flasks incubator at 37° C., 5% CO2 in RPMI medium containing, 10% (v/v) FBS (foetal bovine serum) and 2 mM L-glutamine.
Adherent H292 cells were removed from tissue culture flasks by treatment with Accutase™ cell detachment solution for 15 minutes. Flasks were incubated for 15 minutes in a humidified incubator at 37° C., 5% CO2. Detached cells were re-suspended in RPMI media (containing 10% (v/v) FBS and 2 mM L-glutamine) at 0.05×10^6 cells per mL. 5000 cells in 100 μL were added to each well of a tissue-culture-treated 96-well plate and the cells incubated overnight in a humidified incubator at 37° C., 5% CO2. The culture media was removed and cells were washed twice with 100 μL assay buffer and replaced with 50 μL assay buffer (HBSS solution containing 10 mM HEPES pH7.4 and 5 mM glucose). Cells were rested at room temperature for 20 minutes after which time 25 μL of rolipram (1.2 mM made up in assay buffer containing 2.4% (v/v) dimethylsulphoxide) was added. Cells were incubated with rolipram for 10 minutes after which time Compound A was added and the cells were incubated for 60 minutes at room temperature. The final rolipram concentration in the assay was 300 μM and final vehicle concentration was 1.6% (v/v) dimethylsulphoxide. The reaction was stopped by removing supernatants, washing once with 100 μL assay buffer and replacing with 50 μL lysis buffer. The cell monolayer was frozen at −80° C. for 30 minutes (or overnight).
The concentration of cAMP (cyclic adenosine monophosphate) in the cell lysate was determined using AlphaScreen™ methodology. […] The AlphaScreen™ signal was measured using an EnVision spectrophotometer (Perkin-Elmer Inc.) with the recommended manufacturer's settings. cAMP concentrations were determined by reference to a calibration curve determined in the same experiment using standard cAMP concentrations. […] Intrinsic Activity was expressed as a fraction relative to the maximum activity determined for formoterol in each experiment.

The test system of data set [1] is Methacholine-induced bronchoconstriction in the guinea pig. Briefly: Lung function in anaesthetised guinea pigs: methacholine-induced bronchoconstriction. The format is in vivo. Conditions: 2 hours prior to methacholine, after 5 μg/kg methacholine i.v. The procedure: Evaluation of Lung Function in Anaesthetised Guinea Pigs.
Male Dunkin-Hartley guinea pigs (300-600 g) were weighed and dosed with vehicle (0.05M phosphate, 0.1% Tween 80, 0.6% saline, pH 6) or compound via the intratracheal route under recoverable gaseous anaesthesia (5% halothane in oxygen). Animals were dosed with compound or vehicle two hours prior to the administration of methacholine. Guinea pigs were anaesthetised with pentobarbitone (1 mL/kg of 60 mg/mL solution i.p.) approximately 30 minutes prior to the first bronchoconstrictor administration. The trachea was cannulated and the animal ventilated using a constant volume respiratory pump (Harvard Rodent Ventilator model 683) at a rate of 60 breath/min and a tidal volume of 5 mL/kg. A jugular vein was cannulated for the administration of methacholine or maintenance anaesthetic (0.1 mL of pentobarbitone solution, 60 mg/mL, as required).
The animals were transferred to a Flexivent System (SCIREQ, Montreal, Canada) in order to measure airway resistance. The animals were ventilated (quasi-sinusoidal ventilation pattern) at 60 breaths/min at a tidal volume of 5 mL/kg. A positive end expiratory pressure of 2-3 cm H2O was applied. Respiratory resistance was measured using the Flexivent “snapshot” facility (1 second duration, 1 Hz frequency). Once a stable baseline resistance value had been obtained the animals were given methacholine in ascending doses (0.5, 1, 2, 3 and 5 μg/kg, i.v) at approximately 4-minute intervals via the jugular catheter. After each administration of bronchoconstrictor the peak resistance value was recorded. Guinea pigs were euthanised with approximately 1.0 mL pentobarbitone sodium (Euthatal) intravenously after the completion of the lung function measurements.
Percentage bronchoprotection produced by a compound was calculated at each dose of brochoconstrictor as follows:
Where % change Rveh is the mean of the maximum percentage change in airway resistance in the vehicle treated group. The results reported were measured after 5 μg/kg methacholine and were expressed as percentage bronchoprotection (mean±s.e.mean).
Guinea pigs were dosed with vehicle, 3 and 27 μg/kg compound (BA1), 0.2 μg/kg compound (MA2) (Crystalline Form A) or a combination of 3 μg/kg Compound (BA1) and 0.2 μg/kg Compound (MA2) via the intratracheal route. Administration of increasing intravenous doses of methacholine (0.5, 1, 2, 3 and 5 μg/kg) evoked dose-related bronchoconstriction in the vehicle treated animals ranging from 13±2.6% at 0.5 μg/kg to 2530±280% at 5 μg/kg two hours after vehicle administration (n=9).
[…] Administration of increasing intravenous doses of methacholine (0.5, 1, 2, 3 and 5 μg/kg) evoked dose-related bronchoconstriction in the vehicle treated animals ranging from 14±2.6% at 0.5 μg/kg to 2240±269% at 5 μg/kg two hours after vehicle administration (n=10).

Data set [2] addresses T2, recombinant human adrenergic beta 1 receptors (Homo sapiens, UniProt P08588).
T2 construct: purchased Euroscreen
Briefly: Adrenergic β1 selectivity binding assay ([125I]-Iodocyanopindolol). Conditions: inhibition of [125I]-Iodocyanopindolol binding; read-out: β1 bind p IC50. The procedure: Membranes containing recombinant human adrenergic beta 1 receptors were obtained from Euroscreen. These were diluted in Assay Buffer (50 mM HEPES, 1 mM EDTA, 120 mM NaCl, 0.1% gelatin, pH 7.4) to provide a final concentration of membranes that gave a clear window between maximum and minimum specific binding.
Assays were performed in U-bottomed 96-well polypropylene plates. […] For each assay plate 8 replicates were obtained for [^125I]-Iodocyanopindolol binding in the presence of 10 μL vehicle (10% (v/v) DMSO in Assay Buffer; defining maximum binding) or 10 μL Propranolol (10 μM final concentration; defining non-specific binding (NSB)). Membranes were then added to achieve a final volume of 100 μL. […] Five washes with 250 μL wash buffer (50 mM HEPES, 1 mM EDTA, 120 mM NaCl, pH 7.4) were performed at 4° C. to remove unbound radioactivity. The plates were dried then sealed from underneath using Packard plate sealers and MicroScint-O (50 μL) was added to each well. The plates were sealed (TopSeal A) and filter-bound radioactivity was measured with a scintillation counter (TopCount, Packard BioScience) using a 3-minute counting protocol.
Total specific binding (B0) was determined by subtracting the mean NSB from the mean maximum binding. NSB values were also subtracted from values from all other wells.

Data set [3] has as its target T3, recombinant human α1D receptor (Homo sapiens, UniProt P25100).
T3 construct: expressed in transfected cells; host or cells: HEK293
T3 sequence (P25100 1-572): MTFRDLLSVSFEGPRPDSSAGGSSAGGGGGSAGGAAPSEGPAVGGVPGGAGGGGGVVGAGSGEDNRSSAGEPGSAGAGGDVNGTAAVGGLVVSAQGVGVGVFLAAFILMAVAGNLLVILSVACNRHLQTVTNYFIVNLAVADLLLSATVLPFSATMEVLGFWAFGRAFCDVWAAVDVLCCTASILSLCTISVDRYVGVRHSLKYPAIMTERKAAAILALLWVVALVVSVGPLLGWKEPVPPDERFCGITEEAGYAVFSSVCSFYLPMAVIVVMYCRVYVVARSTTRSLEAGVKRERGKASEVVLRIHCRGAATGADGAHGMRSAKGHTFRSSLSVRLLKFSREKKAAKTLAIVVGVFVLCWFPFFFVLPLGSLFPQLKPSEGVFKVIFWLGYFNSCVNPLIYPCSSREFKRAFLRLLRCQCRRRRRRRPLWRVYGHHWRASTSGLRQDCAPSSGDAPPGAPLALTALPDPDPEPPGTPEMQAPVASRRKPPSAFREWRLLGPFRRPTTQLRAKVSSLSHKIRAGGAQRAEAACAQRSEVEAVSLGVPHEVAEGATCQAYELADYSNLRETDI
As to the kind of experiment: Adrenergic α1D selectivity binding assay ([3H]-prazosin). The conditions noted are these: inhibition of [3H]-prazosin binding; read-out: α1 bind pIC50 (converted). The procedure:
Membranes were prepared from human embryonic kidney 293 (HEK293) cells expressing recombinant human α1D receptor. These were diluted in Assay Buffer (50 mM HEPES, 1 mM EDTA, 0.1% gelatin, pH 7.4) to provide a final concentration of membranes that gave a clear window between maximum and minimum specific binding.
Assays were performed in U-bottomed 96-well polypropylene plates. 10 μL [^3H]-prazosin (0.3 nM final concentration) and 10 μL of Compound A (10× final concentration) were added to each test well. For each assay plate 8 replicates were obtained for [^3H]-prazosin binding in the presence of 10 μL vehicle (10% (v/v) DMSO in Assay Buffer; defining maximum binding) or 10 μL BMY7378 (10 μM final concentration; defining non-specific binding (NSB)). Membranes were then added to achieve a final volume of 100 μL. […] Five washes with 250 μL wash buffer (50 mM HEPES, 1 mM EDTA, pH 7.4) were performed at 4° C. to remove unbound radioactivity. […] The plates were sealed (TopSeal A) and filter-bound radioactivity was measured with a scintillation counter (TopCount, Packard BioScierice) using a 3-minute counting protocol.
Total specific binding (B0) was determined by subtracting the mean NSB from the mean maximum binding. […]

Data set [4] in a line: Gravimetric vapour sorption (GVS). The format is physicochemical. Conditions: at 80% RH, ambient temperature. The procedure: GVS profiles were measured using a Dynamic Vapour Sorption DVS-1 instrument. The solid sample ca. 1-5 mg was placed into a glass vessel and the weight of the sample was recorded during a dual cycle step method (40 to 90 to 0 to 90 to 0% relative humidity (RH), in steps of 10% RH). GVS profiles were recorded at ambient temperature.

Data set [5] in a line: Deaggregation properties of micronised Salt Form A (Fine Particle Fraction). The format is physicochemical. The conditions noted are these: micronised material, across 0-75% RH. The source says:
‘Salt Form A’ was Micronised in a 50 mm jet mill, with ejector pressure 5 bar and milling pressure 1.5-2 bar, giving (90% yield). Particle size of the micronised material as determined by Malvern Laser Diffraction with dry powder feeder was d(0.1) 0.77 μm: d(0.5), 1.45μ: d(0.9): 2.65 μm.

Where [6] appears, read: BA1 27 μg/kg intratracheal, dihydrobromide.

T1 sequence (P07550 whole entry): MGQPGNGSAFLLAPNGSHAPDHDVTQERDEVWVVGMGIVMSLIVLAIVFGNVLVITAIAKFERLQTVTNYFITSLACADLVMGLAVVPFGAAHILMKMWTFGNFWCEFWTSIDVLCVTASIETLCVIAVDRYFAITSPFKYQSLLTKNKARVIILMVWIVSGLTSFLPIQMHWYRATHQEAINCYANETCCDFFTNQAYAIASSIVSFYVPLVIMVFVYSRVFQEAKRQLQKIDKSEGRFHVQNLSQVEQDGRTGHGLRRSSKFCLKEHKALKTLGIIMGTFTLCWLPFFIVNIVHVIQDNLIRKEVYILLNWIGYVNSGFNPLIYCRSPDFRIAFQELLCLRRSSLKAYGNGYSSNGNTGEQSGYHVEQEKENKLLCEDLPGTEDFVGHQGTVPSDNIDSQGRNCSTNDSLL
T2 sequence (P08588 whole entry): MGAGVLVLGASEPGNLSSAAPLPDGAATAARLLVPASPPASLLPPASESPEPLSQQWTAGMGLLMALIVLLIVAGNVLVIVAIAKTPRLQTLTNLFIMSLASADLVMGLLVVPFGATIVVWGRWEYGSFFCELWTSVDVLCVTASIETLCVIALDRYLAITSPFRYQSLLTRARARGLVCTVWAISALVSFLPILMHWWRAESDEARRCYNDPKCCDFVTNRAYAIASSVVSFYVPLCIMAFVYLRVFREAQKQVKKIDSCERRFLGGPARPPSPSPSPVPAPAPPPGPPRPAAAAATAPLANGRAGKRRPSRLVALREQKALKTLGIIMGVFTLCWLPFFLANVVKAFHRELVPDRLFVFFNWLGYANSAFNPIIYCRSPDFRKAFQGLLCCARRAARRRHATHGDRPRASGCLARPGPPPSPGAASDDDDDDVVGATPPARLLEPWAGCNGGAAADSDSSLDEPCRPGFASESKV

As for `CCN(CC)CCN(CCNCCc1ccc(O)c2[nH]c(=O)sc12)C(=O)CCOCCc1cccc2ccccc12` [BA1, N-[2-(Diethylamino)ethyl]-N-(2-{[2-(4-hydroxy-2-oxo-2,3-dihydro-1,3-benzothiazol-7-yl)ethyl]amino}ethyl)-3-[2-(1-naphthyl)ethoxy]propanamide dihydrobromide], at Adrenergic β2, the “β2 Int Act” value is reported as 0.8. The increase in resistance is 1380±333% in data set [1] (BA1 1 μg/kg intratracheal); 2090±239% in data set [1] (BA1 3 μg/kg intratracheal); 470±221% and 242±69% in data set [1] (setting [6]). The “inhibition of methacholine-induced bronchoconstriction” value in data set [1] (BA1 1 μg/kg intratracheal) is 38%; in data set [1] (BA1 3 μg/kg intratracheal) it was 17%; in data set [1] (setting [6]), 81% and 89%. In addition, the IC50 in data set [2] is over 10 µM.
Regarding `CCN(CC)CCN(CCNCCc1ccc(O)c2[nH]c(=O)sc12)C(=O)CCOCCc1cccc(Cl)c1` [BA2, N-[2-(Diethylamino)ethyl]-N-(2-{[2-(4-hydroxy-2-oxo-2,3-dihydro-1,3-benzothiazol-7-yl)ethyl]amino}ethyl)-3-[2-(3-chlorophenyl)ethoxy]propanamide dihydrobromide], the figures for the IC50 in data set [3] and in data set [2] were over 794 nM and over 10 µM, respectively. For the same compound, the “β2 Int Act” value at Adrenergic β2 was 0.7.
Turning to `O=c1[nH]c2c(O)ccc([C@@H](O)CNCCSCCCNCCc3ccccc3Cl)c2s1` [BA3, 7-[(1R)-2-({2-[(3-{[2-(2-Chlorophenyl)ethyl]amino}propyl)thio]ethyl}amino)-1-hydroxyethyl]-4-hydroxy-1,3-benzothiazol-2(3H)-one dihydrobromide], the “β2 Int Act” value on Adrenergic β2 is 0.8.
Consider `C[N+](C)(CCOCc1ccc(Cl)cc1)Cc1cnc([C@](O)(c2ccccc2)C2CCCCC2)o1` [MA11 Salt Form A, [2-(4-chloro-benzyloxy)-ethyl]-[2-((R)-cyclohexyl-hydroxy-phenyl-methyl)-oxazol-5-ylmethyl]-dimethyl-ammonium hemi-naphthalene-1,5-disulfonate], for which the GVS weight increase entry in data set [4] was “less than 0.5 % w/w”. The “Fine Particle Fraction (FPF)” value in data set [5] is listed as over 60%.

(Values after patent US20110046191A1, “COMBINATION OF A MUSCARINIC RECEPTOR ANTAGONIST AND A BETA-2-ADRENOCEPTOR AGONIST” (ARGENTA DISCOVERY LTD., priority 2007, published 2011).)
